Data from publication PMC3089059 (Bioorganic & medicinal chemistry, 2011).

Assays:
[1] = Microsomal stability assay; type: in vitro ADME; conditions: after 60 min of incubation in rat microsomal preparations, 4 μM, NADPH
[2] = Plasma stability assay; type: in vitro ADME; conditions: after 60 min of incubation in rat plasma, 1 μM, 37 °C
[3] = biological target: T1, JNK1 (Homo sapiens, UniProt P45983); test: DELFIA assay, displacement of biotinylated pepJIP1 from GST-JNK1; type: binding
[4] = biological target: T1, JNK1; type: biochemical
[5] = biological target: JNK1 (Homo sapiens, UniProt P45984); test: biochemical; type: binding; conditions: ITC
Chain of JNK1 (Homo sapiens, UniProt P45984) (P45984 whole entry): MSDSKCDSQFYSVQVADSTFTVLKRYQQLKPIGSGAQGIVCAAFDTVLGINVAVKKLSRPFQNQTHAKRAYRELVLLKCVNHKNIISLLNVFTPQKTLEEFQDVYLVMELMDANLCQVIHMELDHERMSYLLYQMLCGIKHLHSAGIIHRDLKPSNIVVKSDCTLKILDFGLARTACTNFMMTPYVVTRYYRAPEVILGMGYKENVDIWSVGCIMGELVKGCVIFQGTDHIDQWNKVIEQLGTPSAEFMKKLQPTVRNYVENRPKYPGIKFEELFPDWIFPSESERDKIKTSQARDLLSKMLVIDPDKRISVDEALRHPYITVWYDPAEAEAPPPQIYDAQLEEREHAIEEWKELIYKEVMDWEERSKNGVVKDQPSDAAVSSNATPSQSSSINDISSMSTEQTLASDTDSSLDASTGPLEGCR

T1 sequence (P45983 whole entry): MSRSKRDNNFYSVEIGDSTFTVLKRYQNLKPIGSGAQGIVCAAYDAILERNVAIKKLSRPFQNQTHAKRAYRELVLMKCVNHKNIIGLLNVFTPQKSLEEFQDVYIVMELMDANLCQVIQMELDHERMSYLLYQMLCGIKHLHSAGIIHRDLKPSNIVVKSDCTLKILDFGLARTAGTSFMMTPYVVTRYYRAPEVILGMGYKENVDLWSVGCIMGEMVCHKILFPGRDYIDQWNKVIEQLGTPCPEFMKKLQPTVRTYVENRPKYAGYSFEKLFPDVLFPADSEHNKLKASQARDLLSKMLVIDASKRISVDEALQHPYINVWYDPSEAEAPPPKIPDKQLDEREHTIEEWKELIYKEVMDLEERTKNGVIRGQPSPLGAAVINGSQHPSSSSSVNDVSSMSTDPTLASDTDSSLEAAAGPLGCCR

| SMILES | degraded [1] [%] | plasma stability [2] | JNK1 inhibitory activity (in words) [4] | further results |
| --- | --- | --- | --- | --- |
| NC(=O)c1ccsc1NC(=O)Cc1ccccc1Cl [Compound 26] | 70 | basically unaltered |  |  |
| Cc1sc(NC(=O)Cc2cccc3ccccc23)c(C(N)=O)c1C [Compound 1, 4,5-dimethyl-2-(2-(naphthalen-1-yl)acetamido)thiophene-3-carboxamide] |  |  |  | IC50 [3]: 15.8 µM |
| O=C(Cc1cccc2ccccc12)Nc1sccc1C(=O)O [Compound 5a] |  |  | significant loss of JNK1 inhibitory activity |  |
| NC(=O)c1ccsc1NC(=O)Cc1cccc(Br)c1 [Compound 33] | 74 | basically unaltered |  |  |
| NC(=O)c1ccc(NC(=O)Cc2cccc3ccccc23)s1 [Compound 5f] |  |  | completely inactive |  |
| N#Cc1ccsc1NC(=O)Cc1cccc2ccccc12 [Compound 5c] |  |  | significant loss of JNK1 inhibitory activity |  |
| NC(=O)c1ccsc1NC(=O)Cc1csc2ccccc12 [Compound 25] | 85 | basically unaltered |  | Kd ([5]; in presence of ATP (saturating non-hydrolizable ATP)): 1.1 µM; Kd ([5]; in presence of pepJIP1 (saturating)): 3.1 µM; mode of inhibition versus ATP (Lineweaver-Burk) ([4]; increasing ATP concentrations): ATP competitive inhibitor; mode of inhibition versus substrate ATF2 (Lineweaver-Burk) ([4]; increasing substrate ATF2 concentrations): mixed substrate competitive inhibitor |
| COC(=O)c1ccsc1NC(=O)Cc1cccc2ccccc12 [Compound 5b] |  |  | significant loss of JNK1 inhibitory activity |  |
